Experimental data: patent US4883808A, “Condensation products of cyclic diketones and ascorbic acid as immunomodulatory agents” (American Biotechnology Company, priority 1988, dated 1989)

What was measured:
[1] = tested on: T- and B-lymphocytes isolated from mouse spleens; assay: lymphocyte blastogenesis assay (mouse spleen lymphocytes, C-14 methyl thymidine uptake); type: cell-based; set-up: LPS 5.0 (lymphocyte blastogenesis) / RPMI (lymphocyte blastogenesis): unit not given here; conditions: for LPS 5.0 (lymphocyte blastogenesis) / % CHANGE (LPS): LPS 5.0 MG/KG; for % CHANGE (LPS) / % CHANGE (PHA): vs 0 mg/kg; for PHA 10.0 (lymphocyte blastogenesis) / % CHANGE (PHA): PHA 10.0 UG/KG; for RPMI (lymphocyte blastogenesis): media, no mitogen
Description: One of these tests is the lymphocyte blastogenesis assay which measures the ability of the compound under test to affect DNA synthesis and mitosis of T- and B- lymphocytes isolated from mouse spleens.
Mitogens are substances which stimulate DNA synthesis and mitosis. The mitogens used in these studies were phytohemaglutinin (PHA) which is isolated from the red kidney bean and a lipopolysacharide isolated from Salmonella tythimurium (LPS).
The lymphocyte blastogenesis test is a method to assess the ability of immunocompetent T- or B-cells to respond to mitogens or a specific antigen. It may be performed on lymphocytes obtained from mice treated with immunostimulators in vivo or the entire assay can be performed in vitro. The assay as described below uses minimal doses of polyclonal mitogens to induce blastogenesis (proliferation measured by DNA synthesis), in order to be able to assess the phenomena of amplification.
The lymphocyte blastogenesis test is carried out as follows:
1. Sacrifice two mice/experimental group by cervical dislocation.
2. Immerse mice in a mild disinfectant solution (Povadyne).
3. Remove spleens and place in a sterile 6 well plate containing 5 ml/well of RPMI-1640.
4. Make a single cell suspension by mincing spleens with a sterile toothed forcep.
5. Place cell suspension in a sterile centrifuge tube and allow large clumps to settle for 10 minutes.
6. Remove single cell suspension by pipetting supernatant into another sterile centrifuge tube.
7. Centrifuge cell suspension for 10 mins. at 1100 RPM in GLC-2B.
8. Aseptically remove supernatant and discard.
9. Resuspend cell button in 5 mls of RPMI-1640, and centrifuge. Wash cells in this manner two more times.
10. Resuspend cells in 5 mls of RPMI-1640 containing 10-15% Human AB heat-inactivated (Pel-Freeze, Rogers, AR or BioBee, Boston, MA).
11. Perform viable cell count using 0.25% trypan blue exclusion dye made in physiological isotonic saline. Non-viable cells stain blue.
12. Adjust viable cell concentration to […] in RPMI-1640 containing human AB sera.
13. Aliquot in sextuplicate wells of a 96 well sterile round bottom tissue culture plate with 0.1 ml/well of the various cell suspensions to be tested.
14. Add to above replicate sextuplicate cells selected quantities of mitogen.
15. Include in the experiment a control plate which contains the same cell groups as above, but receive a 0.1 ml of media instead of mitogen.
16. Humidify plate by filling outside wells of plate with media.
17. Incubate plates at […] with 5% CO-2 for 48 hours.
18. After 48 hours all wells receive 0.025 mls of a 0.4 microcurie/ml solution of C-14 methyl thymidine and incubate at 37 C, 5% CO-2 for 18 hours.
19. The cells are harvested using a Brandel M-12 Cell Harvestor (Brandel, Rockfille, MD) onto filter paper discs using phosphate buffered saline at physiological osmolarity. (285-320 mos).
20. The filter paper disks are placed into Packard mini-scintillation vials and allowed to dry for 18 hours.
21. Once dried, the vials are filled with 2 mls of a scintillation cocktail containing 4 liters of scintillation grade toluene, 16.0 g of 2,5-diphenyloxazole (PPO) and 0.4 g of 1,4-Bis (2-(5-Phenyloxazoly) benzene (POPOP).
22. The vials are counted in a LKB 1212 Rackbeta (LKB Instruments, Gaithersburg, MD) Liquid scintillation counter for two minutes/vial.

feline leukemia virus = assay: antiviral test of Sidewell and Huffman, feline leukemia virus in 81C cells; type: cell-based, feline leukemia virus (81C feline kidney cell); conditions: 81C cell line
Experimental: The virus rating (VR) of Compound A of this invention when tested in accordance with the method of […] and Huffman (Appl. Microbiol. 22:795-801, 1971) against adenovirus type 2 utilizing HEp-2 as the target cell was greater than 0.2. […] The minimum toxic concentration (MTC) was greater than 320 μg/ml. The same compound was also tested against feline leukemia virus by the […] and Huffman procedure using the […] cell line as the target. The […] cell is a feline kidney cell transformed with a murine leukemia virus (ras gene +) with the following results. The therapeutic index of the compound which is a measure of the compounds ability to protect the cell against the virus without adversely affecting cell growth was 22.

adenovirus type 2 = assay: antiviral test of Sidewell and Huffman, adenovirus type 2 in HEp-2 cells; type: cell-based; conditions: HEp-2 target cell
Experimental: The virus rating (VR) of Compound A of this invention when tested in accordance with the method of Sidewell and Huffman (Appl. Microbiol. 22:795-801, 1971) against adenovirus type 2 utilizing HEp-2 as the target cell was greater than 0.2. […] The minimum toxic concentration (MTC) was greater than 320 μg/ml.

Substance: <3,4'>-hemiketal-<3,6>-ketal of 2-(1',4'-diketo-3'-cyclohexyl)-2-hydroxy-3-keto-4-dihydroxyethylbutyrolactone [Compound B]
- LPS 5.0 (lymphocyte blastogenesis) ([1]; 12.5 mg/kg): 7195 ± 90
- % CHANGE (LPS) ([1]; 12.5 mg/kg): +2.2%
- PHA 10.0 (lymphocyte blastogenesis) ([1]; 12.5 mg/kg): 7126 ± 1104
- % CHANGE (PHA) ([1]; 12.5 mg/kg): -3.8%
- RPMI (lymphocyte blastogenesis) ([1]; 12.5 mg/kg): 605 ± 117
- LPS 5.0 (lymphocyte blastogenesis) ([1]; 25 mg/kg): 8580 ± 507
- % CHANGE (LPS) ([1]; 25 mg/kg): +21.9%
- PHA 10.0 (lymphocyte blastogenesis) ([1]; 25 mg/kg): 7563 ± 2053
- % CHANGE (PHA) ([1]; 25 mg/kg): +2.1%
- RPMI (lymphocyte blastogenesis) ([1]; 25 mg/kg): 1392 ± 247
- LPS 5.0 (lymphocyte blastogenesis) ([1]; 50 mg/kg): 6823 ± 1305
- PHA 10.0 (lymphocyte blastogenesis) ([1]; 50 mg/kg): 10218 ± 2630
- % CHANGE (PHA) ([1]; 50 mg/kg): +37.9%
- RPMI (lymphocyte blastogenesis) ([1]; 50 mg/kg): 1041 ± 687
- LPS 5.0 (lymphocyte blastogenesis) ([1]; 100 mg/kg): 8423 ± 351
- % CHANGE (LPS) ([1]; 100 mg/kg): +19.6%
- PHA 10.0 (lymphocyte blastogenesis) ([1]; 100 mg/kg): 9258 ± 1391
- % CHANGE (PHA) ([1]; 100 mg/kg): +24.9%
- RPMI (lymphocyte blastogenesis) ([1]; 100 mg/kg): 705 ± 314
- LPS 5.0 (lymphocyte blastogenesis) ([1]; 200 mg/kg): 8025 ± 1670
- % CHANGE (LPS) ([1]; 200 mg/kg): +14%
- PHA 10.0 (lymphocyte blastogenesis) ([1]; 200 mg/kg): 8111 ± 896
- % CHANGE (PHA) ([1]; 200 mg/kg): +9.4%
- RPMI (lymphocyte blastogenesis) ([1]; 200 mg/kg): 660 ± 354

Substance: <3,3'>-hemiketal-<3,6>-ketal of 2-(1',3'-diketo-4'-cyclopentyl)-2-hydroxy-3-keto-4-dihydroxyethylbutyrolactone [Compound A]
- MTC (minimum toxic concentration) (feline leukemia virus): 100
- ID50 (concentration in μg./ml that causes 50% reduction in virus replication) (feline leukemia virus; feline leukemia virus): 4.5 µg/mL
- VR (virus rating) (feline leukemia virus; feline leukemia virus, control 0.98): 1.1
- minimum toxic concentration (MTC) (adenovirus type 2): greater than 320 μg/ml
- ID50 (concentration that causes 50% reduction in virus replication) (adenovirus type 2; adenovirus type 2): 505.19 µg/mL
- virus rating (VR) (adenovirus type 2; adenovirus type 2): greater than 0.2
